# Results taken from patent publication US9315532B2, “Fatty acid carbohydrate hybrid molecules as therapeutic agents and methods thereof” (The Johns Hopkins University, priority 2005, dated 2016).
# Entries after “also recorded” stand apart in the source; their conditions may differ.
# Tests used:
# Format in all cases: cell-based, human
# Jurkat cells [1] = experiment: Toxicity and growth inhibition assays (cell counts on days 3, 5 and 15)
# Description: For cell culture studies, But4ManNAc (1) (50) was used as a mixture of anomers (α/β=10/90), But4GlcNAc (2) as pure α-anomer and But5Man (3) as pure β-anomer (It is noteworthy that the intracellular hydrolysis of butyrate esters makes the anomeric configuration less relevant in these studies and we found similar cellular effects between the α- and β-anomers in long term toxicity). Stock solutions of the sugar analogs were made in ethanol at concentrations of 10 mM and 50 mM. In the case of cells growing in suspension the solutions of 1-4 (or an ethanol control at an equivalent volume) were coated onto dishes and the ethanol was allowed to evaporate prior to plating. Unless otherwise noted, throughout this study Jurkat cells (Clone E-6, ATCC, Manassas, Va.) were cultured in RPMI 1640 medium supplemented with 300 mg/L glutamine, 5.0% fetal bovine serum (HyClone, Logan, Utah) and 1.0% of a 100× dilution of a pen/strep stock solution containing penicillin (100 units/mL) and streptomycin (100 μg/mL); HL-60 cells (ATCC, Manassas, Va.) were cultured in RPMI 1640 medium supplemented with 10% FBS and pen/strep; and AD293 (HEK) cells (Stratagene, La Jolla, Calif.) were grown in DMEM medium with 10% FBS and pen/strep. In all cases, cells were incubated in a standard 37° C. in a 5.0% CO2, water-saturated environment. Cell counting was performed with a Beckman-Coulter Z2 particle counter and hemacytometer.
# Solutions of the analogs in EtOH (10 mM stock) were coated onto 24-well plates at a range of concentrations from 0-320 μM and ethanol was allowed to evaporate. Jurkat cells (1.0×10^5 cells) in 0.5 mL of medium were plated in each well (day 0). On days 3 and 5, fresh medium (1.0 mL) was added to each well. Cell cultures were mixed by gentle pipetting and 100 μL of cell suspension was taken from each well and counted. On days 7, 9, 11, 13 and 15, 1.0 mL of cell suspension was removed from each well after thorough mixing and fresh medium (1.0 mL) was added. Cells were counted on day 15 and the cell density was plotted as a percentage of control (as was done for cell counts from days 3 and 5).
# Jurkat cells [2] = experiment: Cell viability assay (trypan blue exclusion); conditions: 200 μM
# Description: Jurkat cells (2.0×10^5 cells/mL) were seeded with 1-4 at 200 μM in 6-well T. C. plates. Aliquots of cell suspension (20 μL) were removed on a daily basis diluted with either PBS (20 μL) or trypan blue solution (20 μL) and cell viability was determined by using the standard trypan blue exclusion method; three replicate counts were taken for each condition.
# HeLa cells = experiment: Morphological changes to HeLa cells
# Description: The studies on morphological changes induced by sodium butyrate (5) and But4ManNAc (1) were performed following a reported procedure (45). Briefly, HeLa cells (200,000 cells per well in a 6-well plate) were plated and allowed to form monolayers. After 24 h, the supernatant was aspirated, fresh medium (4.0 mL) was added and treated with either ethanol (20 μL (0.5%), control), 5 (5.0 mM), or 1 (250 μM). For the AD 293 (HEK) cells 2.0×10^6 cells in 10 mL of medium (100 mm tissue culture dishes) were plated and treated, immediately after plating, with either ethanol (50 μL, control), 5 (5.0 mM), or 1 (250 μM). Images were acquired at various time intervals under bright field using a Nikon Eclipse TE200 inverted microscope equipped with a DXM 1200 digital camera.
# p21WAF1/Cip1 promoter = experiment: Luc-p21WAF1/Cip1 luciferase reporter gene assay in AD293 (HEK) cells
# Description: The plasmid Luc-p21^Cip1/WAF1 (a gift from Vogelstein Laboratory, JHMI, Baltimore, Md.) was amplified and purified utilizing a plasmid maxi kit (Cat. No. 12163. Qiagen, Valencia, Calif.) following the manufacturer's protocol. HEK cells (2.5×10^5) were seeded in 3.0 mL medium and grown in 6-well T. C. plates. Transfection was performed using lipofectamine 2000 (Cat. No. 11668-019, Invitrogen, Carlsbad, Calif.) following the protocol supplier's protocol. Cells were trypsinized 24 h after transfection and seeded at 250,000 cells per well with concentrations of 1-4 shown in FIG. 3a or 1, 5, and ManNAc plus 5 at the concentrations shown in FIG. 3c. After 72 h, the cells were trypsinized, counted and lysed in 300 μL of luciferase cell culture lysis buffer and diluted five-fold in the same buffer. Luminometry was performed utilizing the ‘Luciferase Assay System’ (Cat. No. 1500, 4550, Promega, Madison, Wis.) following supplier's protocol. Luciferase Assay Reagent (100 μL) was added to the cell lysate (20 μL) in luminometer tubes (Cat. No. 55.476, Sarstedt, Newton, N.C.) and the luminescence was measured immediately using a Berthold Sirius Luminometer. The final values were normalized relative to ethanol-treated controls and reported on a per cell basis.
# Jurkat cells [3] = experiment: Flow cytometry analysis of cell cycle status (PI/RNase A)
# Description: The cell cycle arrest induced by butyrate analogs was studied following the standard protocol (49). Briefly, Jurkat cells (2.3×10^5 cells/mL) were incubated with various concentrations of 1 (0, 25, 50, 75, 100, 150 and 200 μM); 2 (200 μM); 3 (200 μM); and 4 (200 μM) for five days. The cells were then harvested, counted, washed twice with PBS, re-suspended in PBS (500 μL), added to a cold solution of 78% aqueous ethanol (4.5 mL) using a glass Pasteur pipette and kept at 2.0° C. for at least 24 h. The fixed cells were centrifuged twice to remove the ethanol completely, re-suspended in propidium iodide (PI)/ribonuclease A (RNase A) staining buffer (BD Pharmingen, Catalog No. 550825, San Diego, Calif.) (500 μL for 1.0×10^6 cells), incubated at 37° C. for 15 min and analyzed by flow cytometry. The cellular aggregates were excluded from single cell populations using an area-width plot (FL2—PT fluorescence) for the cell cycle status determination. At least 10,000 gated events were counted for each determination.
# Jurkat cells (2.5×10^5 cells/mL) were incubated with either ethanol (0.2%) or 1 (100 μM or 200 μM). Aliquots of cell suspensions were taken on day 0 and days 2-6, washed with PBS (twice) and fixed in 75% ethanol at 2.0° C. for at least 48 h. The cells were stained with PI/RNase staining buffer and analyzed by flow cytometry as given above.
smiles,measurement,setting,value
"CCCC(=O)OC[C@H]1OC(OC(=O)CCC)[C@@H](NC(C)=O)[C@@H](OC(=O)CCC)[C@@H]1OC(=O)CCC (stereo partly drawn) [compound 1, 2-Acetylamino-2-deoxy-1,3,4,6-tetra-O-butanoyl-α,β-D-mannopyranoside]",long term growth characteristics (day 15),"Jurkat cells [1]; Jurkat cells, 0-320 μM, day 15",induces both growth arrest and cell death
same,concentration at which essentially all cells died by day 15,"Jurkat cells [1]; Jurkat cells, day 15",≥ 80 µM
same,range for bioactivity,Jurkat cells [1]; ManNAc and butyrate combined in the same molecule,50 to 100 µM
same,reduced cell viability in trypan blue assay,Jurkat cells [2],exhibited reduced cell viability
same,morphological changes / differentiation of HeLa cells,"HeLa cells; 3 days, 1 at 250 μM, 5 at 5.0 mM",induced differentiation of HeLa cells; also recorded: growth of extended processes
same,fold lower concentration for cellular responses than sodium n-butyrate,HeLa cells; HeLa cells,~20 ×
same,concentration level required for p21WAF1/Cip1 activation,p21WAF1/Cip1 promoter,micromolar level efficiency
same,"gain in efficiency for 1 over 5, relative to the ~10× of the endogenous p21 assay",p21WAF1/Cip1 promoter; luc-p21WAF1/Cip reporter assay,even greater
same,cell cycle status at lower concentrations,"Jurkat cells [3]; Jurkat cells, 0-75 μM, 5 days",stepwise decrease in G0/G1 accumulation with a concomitant increase in cells at the G2/M stage
same,population of apoptotic cells (DNA content),"Jurkat cells [3]; Jurkat cells, 0-200 μM, five days",dose dependent increase in population of apoptotic cells
same,"cell cycle status, time course","Jurkat cells [3]; Jurkat cells, 100 μM, until day 6",strong cell cycle inhibition at the G2/M stage
same,"cell cycle status, time course","Jurkat cells [3]; Jurkat cells, 200 μM",accumulated more rapidly at the G2/M stage
same,cell cycle status / apoptosis,"Jurkat cells [3]; Jurkat cells, 200 μM, 5 days",majority of cells treated with 1 appeared to be apoptotic
same,cells with DNA in the sub G0 range,"Jurkat cells [3]; Jurkat cells, 200 μM, day 4",substantial proportion
same,cells with DNA in the sub G0 range,"Jurkat cells [3]; Jurkat cells, 200 μM, day 6",almost complete
same,concentration above which non-viable cells (sub G0) accumulated,"Jurkat cells [3]; Jurkat cells, 5 days",exceeded 75 μM
same,apoptosis versus cell cycle arrest (summary),Jurkat cells [3]; human cancer cells,efficiently induced apoptosis
